# Results from US8536132B2, “Lymphatic zip codes in tumors and pre-malignant lesions” (Sanford-Burnham Medical Research Institute, priority 2006, dated 2013).
# “Also recorded” adds a separate entry of the source. Marks after values point to notes of the source that are not given here. Ends that are not written are not given here. * marks the point of attachment. FITC = O=C1OC2(c3ccc(O)cc3Oc3cc(O)ccc32)c2ccc(NC(=S)*)cc21
# Tests used:
# KRIB tumors = experiment: Fluorescein-labeled LSD peptide homing to KRIB tumors; type: in vivo, mouse; settings: fluorescein-labeled peptide i.v.
# Description: (§1) The frozen sections were prepared for immunohistological analysis.
# C8161 tumors = experiment: Tissue distribution of fluorescein-conjugated LSD peptide in C8161 tumor mice; type: in vivo, mouse; design: fluorescence in all other tissues except tumors: dose or concentration left out as unconfirmed; settings: for fluorescent peptide in C8161 tumors and control organs: fluorescein-conjugate peptide i.v., 2 hrs circulation
# Description: as §1
# [1] = system: the other tumors, including the skin cancers; experiment: Fluorescein-labeled LSD peptide homing to other tumors; type: in vivo, mouse; settings: fluorescein-labeled peptide i.v.
# Description: as §1
# [2] = system: PPC1, M12, DU145, and LNCaP orthotopic xenografts; experiment: Fluorescein-conjugated REA peptide homing to orthotopic human prostate cancer xenografts; type: in vivo, mouse
# Description: Custom immunization to produce a rabbit antiserum against mouse Prox-1 was performed by Proteintech Inc. New Zealand White rabbits were immunized with a fusion protein of GST-C-terminal fragment of Prox-1 protein. The antibody was affinity purified on the fusion protein and absorbed with GST. […] Antibodies against the lymphatic markers anti-LYVE-1 (Laakkonen et al., 2002) and anti-podoplanin (kindly provided by T. Petrova and K. Alitalo), rat monoclonal anti-mouse CD31 (BD Pharmingen), rat anti-mouse MECA-32 (Pharmingen), rabbit polyclonal anti-T7 phage, and rat anti-mouse VEGFR3 were used for immunohistochemical staining of frozen tissue sections as described (Joyce et al., 2003; Laakkonen et al., 2002). The corresponding secondary antibodies were added and incubated for 1 hr at room temperature: AlexaFluor-488 goat anti-rat or rabbit IgG (1:1000; Molecular Probes, Eugene, Oreg.), AlexaFluor-594 goat anti-rat or rabbit IgG (1:1000, Molecular Probes), AlexaFluor-594 donkey anti-mouse or goat IgG (1:1000, Molecular Probes), and AlexaFluor-488 donkey anti-mouse or goat IgG (1:1000; Molecular Probes), respectively. The slides were washed three times with PBS and mounted in Vectashield Mounting Medium with DAPI (Vector Laboratories, Burlingame, Calif.). […]
# [3] = system: K14-HPV16/E2 cervical lesions; experiment: Distribution of fluorescent peptides in K14-HPV16/E2 mice with cervical lesions; type: in vivo, mouse; settings: labeled peptide i.v.
# Description: as §1
# TRAMP prostate tumors = experiment: In vivo phage homing to TRAMP prostate tumors; design: species or system mouse
# Description: (§2) The following cell lines were maintained in DMEM supplemented with 10% FCS: C8161 human melanoma, MDA-MB-435 human breast cancer, KRIB human osteosarcoma, and human prostate cancer cells PPC1, DU145. LNCaP human prostate cancer cell line was grown in RPMI 1640 medium with 10 mM HEPES, 1 mM sodium pyruvate and 1.5 g/L sodium bicarbonate supplemented with 10% FCS. M12 human prostate cancer cell line was cultured in RPMI 1640 with 5 μg/ml insulin-transferrin-sodium selenite (ITS), 2.5 μg/ml fungizone, 50 μg/ml gentamycin, 0.2 μM dexamethasone, 10 ng/ml epidermal growth factor (EGF), and 5% FCS (Bae et al., 1998). To produce tumors, nude BALB/c and C56BL/6 mice were subcutaneously (C8161, KRIB, and PPC1) or orthotopically ([…], PPC1, DU145, M12, and LNCaP) injected with 1×10^6 tumor cells. Transgenic mouse tumor models included TRAMP prostate cancer, MMTV-PyMT breast cancer, and K14-HPV16 cervical cancer. To initiate cervical carcinogenesis, female K14-HPV16 mice (Arbeit et al., 1994) were treated with 17β-estradiol (E2; (Arbeit et al., 1996; Giraudo et al., 2004). Briefly, one-month-old virgin female transgenic (heterozygous K14-HPV16, 1203#1) and nontransgenic (FVB/n) mice were anesthetized with isoflurane, and continuous release pellets that deliver E2 at doses of 0.05 mg over 60 days (Innovative Research of America, Sarasota, Fla., USA) were implanted subcutaneously in the dorsal back skin. Subsequent pellets were implanted at 3 and 5 months of age for a total of 6 months of hormone treatment. K14-HPV16 mice were maintained in the FVB/n background (FVB/n; The Jackson Laboratory). The mice were maintained in accordance with the University of California, San Francisco (UCSF) institutional guidelines governing the care of laboratory mice. The animal experimentation was approved by Animal Research Committees at UCSF or The Burnham Institute.
# (§3) In vivo homing specificity of phage was tested as described (Hoffman, 2004). Briefly, mice bearing tumors were anesthetized and intravenously injected with 5×10^9 pfu of phage. After 7 min, the mice were perfused through the heart with PBS containing 0.5% BSA. The tumor and control organs were dissected from each mouse and the phage were rescued and tittered. For histology analysis, the mice were perfused with 4% PFA 30 min after the injection of phage. Tissues were embedded in Tissue-Tek O.C.T. and 5 μm sections were prepared for phage immunostaining.
# [4] = system: PPC1 orthotopic xenografts; experiment: In vivo phage homing to PPC1 orthotopic xenografts; design: species or system mouse
# Description: as §2, §3
# C8161 xenografts = experiment: In vivo phage homing to C8161 xenograft tumors; design: species or system mouse; settings: for phage homing to C8161 tumors (in words): i.v. injected phage, C8161 xenograft mice
# Description: as §2, §3
# KRIB xenografts = experiment: In vivo phage homing to KRIB xenografts; design: species or system mouse; settings: for phage homing to KRIB xenografts (in words): i.v. injected phage
# Description: as §2, §3
# [5] = system: MDA-MB-435 orthotopic xenografts; experiment: In vivo phage homing to MDA-MB-435 orthotopic xenografts; design: species or system mouse
# Description: as §2, §3
# CXCR4 = target: T1, CXCR4 (Homo sapiens, UniProt P61073); experiment: Phage binding to CXCR4-transfected 293T cells
# T1 construct: expressed in transfected cells; host or cells: 293T cells, transient transfection with FuGene 6
# Description: The 293T cells were transfected with plasmids encoding CXCR4 (Helbig et al., 2003) or VEGFR2 (Borges et al., 2000) using FuGene 6 transfection reagent (Roche Diagnostics, Indianapolis, Ind.). Briefly, plasmid (10 μg) was mixed with 900 μl of serumfree DMEM and 50 μl of FuGene and incubated for 15 min at room temperature before adding the mixture to the cells. The cells were detached using EDTA after 48 hrs post transfection and washed with PBS containing 1% BSA. Phage (5×10^9 pfu) were incubated with the transfected cells and bound phage were rescued and titrated. For competitive binding assay, the cognate peptide (150 μg/ml) or antibody (50 μg/ml) was added during incubating of the phage with cells. Targeted proapoptotic peptide treatment of tumor-bearing mice Prostate cancer model. Orthotopic xenografted prostate tumors were established by injecting 1×10^6 PPC1 human prostate cancer cells into the mouse prostate. Fifteen days post inoculation, the mice were intravenously injected with D(KLAKLAK)2-CREAGRKAC (SEQ ID NO:41), an equimolar mixture of D(KLAKLAK)2 (SEQ ID NO:19) and CREAGRKAC (SEQ ID NO:6), or PBS. Biweekly injections of 100 μg/dose/mouse were given for three weeks. Melanoma model. Nude BALB/c mice were subcutaneously injected with 1×10^6 C8161 human melanoma cells. Treatment started when mean tumor volumes reached about 100 mm3. Mice with size-matched tumors were randomized into three groups. The therapeutic group received a chimera of tumor homing peptide with the proapoptotic motif (D(KLAKLAK)2-CLSDCGKRKC; SEQ ID NO:42). The control groups received an equimolar mixture of CLSDGKRKC (SEQ ID NO:4) and D(KLAKLAK)2 (SEQ ID NO:19), or PBS alone. The tumor-bearing mice were intravenously injected with 200 μg/dose/mouse once a week for three weeks. The mice were monitored for weight loss, and tumors were dissected and weighed at the termination of the experiment. Histological analysis was performed to evaluate the density of tumor lymphatics and blood vessels. The animal experiments reported here were approved by The Burnham Institute Animal Research Committee.
# VEGFR2 = target: T2, VEGFR2 (Homo sapiens, UniProt P35968); experiment: Phage binding to VEGFR2-transfected 293T cells
# T2 construct: expressed in transfected cells; host or cells: 293T cells, transient transfection with FuGene 6
# Description: The 293T cells were transfected with plasmids encoding CXCR4 (Helbig et al., 2003) or VEGFR2 (Borges et al., 2000) using FuGene 6 transfection reagent (Roche Diagnostics, Indianapolis, Ind.). Briefly, plasmid (10 μg) was mixed with 900 μl of serumfree DMEM and 50 μl of FuGene and incubated for 15 min at room temperature before adding the mixture to the cells. The cells were detached using EDTA after 48 hrs post transfection and washed with PBS containing 1% BSA. Phage (5×10^9 pfu) were incubated with the transfected cells and bound phage were rescued and titrated. For competitive binding assay, the cognate peptide (150 μg/ml) or antibody (50 μg/ml) was added during incubating of the phage with cells. Targeted proapoptotic peptide treatment of tumor-bearing mice Prostate cancer model. Orthotopic xenografted prostate tumors were established by injecting 1×10^6 PPC1 human prostate cancer cells into the mouse prostate. Fifteen days post inoculation, the mice were intravenously injected with D(KLAKLAK)2-CREAGRKAC (SEQ ID NO:41), an equimolar mixture of D(KLAKLAK)2 (SEQ ID NO:19) and CREAGRKAC (SEQ ID NO:6), or PBS. Biweekly injections of 100 μg/dose/mouse were given for three weeks. Melanoma model. […] The mice were monitored for weight loss, and tumors were dissected and weighed at the termination of the experiment. […]
# K14-HPV16 skin cancer = experiment: In vivo homing to K14-HPV16 skin cancer; design: species or system mouse
# Description: as §2, §3
# MMTV-PyMT breast tumors = experiment: In vivo phage homing to MMTV-PyMT breast tumors; design: species or system mouse
# Description: as §2, §3
# [6] = system: cell suspensions prepared from C8161 tumors; experiment: Phage binding to cell suspensions prepared from C8161 tumors; type: cell-based, mouse; settings: phage clone, ex vivo
# [7] = phage homing in vivo, TRAMP prostate tumors
# [8] = fluorescein-conjugate peptide, C8161 tumor sections
# [9] = phage homing in vivo, PPC1 orthotopic xenografts
# [10] = phage homing in vivo, C8161 (s.c.) xenografts
# [11] = phage homing in vivo, KRIB xenografts
# [12] = phage homing in vivo, MDA-MB-435 orthotopic xenografts
# [13] = phage homing in vivo, K14-HPV16 skin cancer
# [14] = phage homing in vivo, MMTV-PyMT breast tumors
# T1 sequence (P61073 whole entry, species assumed): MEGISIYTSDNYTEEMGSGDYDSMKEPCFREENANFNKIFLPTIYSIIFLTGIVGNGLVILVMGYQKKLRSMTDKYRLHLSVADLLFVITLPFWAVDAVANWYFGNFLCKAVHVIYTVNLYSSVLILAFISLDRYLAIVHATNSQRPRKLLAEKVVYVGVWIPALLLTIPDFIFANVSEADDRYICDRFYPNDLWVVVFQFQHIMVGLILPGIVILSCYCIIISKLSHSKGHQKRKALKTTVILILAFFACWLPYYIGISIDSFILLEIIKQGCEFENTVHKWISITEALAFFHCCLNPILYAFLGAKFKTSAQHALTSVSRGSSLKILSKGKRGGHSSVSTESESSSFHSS
# T2 sequence (P35968 20-1356, species assumed): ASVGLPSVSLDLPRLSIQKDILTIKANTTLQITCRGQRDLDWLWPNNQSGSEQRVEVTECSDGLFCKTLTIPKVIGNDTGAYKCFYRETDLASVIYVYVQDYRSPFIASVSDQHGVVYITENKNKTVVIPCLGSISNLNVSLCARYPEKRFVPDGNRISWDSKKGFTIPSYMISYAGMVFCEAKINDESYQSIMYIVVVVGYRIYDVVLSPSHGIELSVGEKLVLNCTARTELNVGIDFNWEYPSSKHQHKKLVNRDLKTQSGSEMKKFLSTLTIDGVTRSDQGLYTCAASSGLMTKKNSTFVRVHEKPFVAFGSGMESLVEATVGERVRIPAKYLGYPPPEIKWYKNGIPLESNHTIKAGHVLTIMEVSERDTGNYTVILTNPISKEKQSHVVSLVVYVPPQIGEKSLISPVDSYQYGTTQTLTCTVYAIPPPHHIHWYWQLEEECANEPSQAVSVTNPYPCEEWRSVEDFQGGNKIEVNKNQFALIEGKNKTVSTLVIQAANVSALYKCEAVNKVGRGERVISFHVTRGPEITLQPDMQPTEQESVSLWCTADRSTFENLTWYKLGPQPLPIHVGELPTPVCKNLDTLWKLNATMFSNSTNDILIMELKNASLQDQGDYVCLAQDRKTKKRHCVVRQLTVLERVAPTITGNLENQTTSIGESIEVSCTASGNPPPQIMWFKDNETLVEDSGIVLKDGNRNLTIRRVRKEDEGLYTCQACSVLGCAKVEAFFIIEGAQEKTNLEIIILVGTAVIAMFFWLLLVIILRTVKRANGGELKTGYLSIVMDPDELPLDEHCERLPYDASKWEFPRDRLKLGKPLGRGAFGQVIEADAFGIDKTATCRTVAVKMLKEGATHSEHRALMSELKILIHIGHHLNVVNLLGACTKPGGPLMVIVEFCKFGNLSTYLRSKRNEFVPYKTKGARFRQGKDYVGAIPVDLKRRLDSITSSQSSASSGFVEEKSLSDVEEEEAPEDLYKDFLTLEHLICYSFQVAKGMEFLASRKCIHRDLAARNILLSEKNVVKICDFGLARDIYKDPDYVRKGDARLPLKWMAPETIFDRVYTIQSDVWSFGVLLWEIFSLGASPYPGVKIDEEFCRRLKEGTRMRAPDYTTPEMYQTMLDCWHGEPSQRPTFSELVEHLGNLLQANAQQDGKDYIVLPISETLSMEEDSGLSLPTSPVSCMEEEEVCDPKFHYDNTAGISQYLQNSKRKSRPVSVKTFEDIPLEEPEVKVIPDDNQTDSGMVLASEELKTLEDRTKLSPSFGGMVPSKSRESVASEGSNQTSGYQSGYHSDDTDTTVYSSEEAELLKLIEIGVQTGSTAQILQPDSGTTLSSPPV
substance,measurement,setting,value
FITC-LSD: fluorescein-conjugated LSD peptide (CLSDGKRKC) ({FITC}-CLSDGKRKC; cysteine pairing not given here),fluorescent peptide homing to KRIB tumors (in words),KRIB tumors,weakly positive
same,fluorescence in kidneys,"C8161 tumors; FITC-LSD (150 mg) i.v., 2 hrs",A few spots of LSD fluorescence
same,fluorescence in all other tissues except tumors,"C8161 tumors; FITC-LSD i.v., 2 hrs",negative
same,fluorescent peptide in C8161 tumors and control organs,C8161 tumors,Strong LSD peptide fluorescence
same,"fluorescent peptide homing to the other tumors, including skin cancers",[1],negative
"FITC-REA: fluorescein-labeled REA peptide (CREAGRKAC) (not fully specified (N-terminus); cysteine pairing not given here; also: FITC label, position not given here)","fluorescent peptide in PPC1, M12, DU145, LNCaP orthotopic xenografts",[2]; fluorescein-conjugated peptide,positive
same,co-localization with lymphatic vessels in orthotopic prostate tumor xenografts,[2]; immunohistochemical analysis,co-localized with lymphatic vessels
same,fluorescent peptide in K14-HPV16/E2 cervical lesions/tumors (in words),[3],homed to a lesser extent
CLSDGKRKC [homing peptide for C8161 melanoma lymphatics],phage homing to TRAMP prostate tumors (in words),TRAMP prostate tumors; i.v. injected phage,did not appreciably home
same,Fold over control phage,TRAMP prostate tumors; [7],1 fold
same,Specific Homing,TRAMP prostate tumors; [7],No
same,fluorescent peptide homing to KRIB tumors (in words),KRIB tumors,slightly positive
same,fluorescent peptide in C8161 tumors and control organs,C8161 tumors,"detected within the tumors, but not in control organs"
same,co-localization with blood vessel markers MECA-32 and CD31,C8161 tumors; [8],no co-localization
same,"co-localization with lymphatic vessel markers podoplanin, Prox-1, LYVE-1, VEGFR3",C8161 tumors; [8],co-localization of the LSD fluorescence with them
same,lymphatic vessels positive for the peptide that were also positive for podoplanin,"C8161 tumors; fluorescein-conjugate peptide, C8161 tumors",85%
same,phage homing to PPC1 orthotopic xenografts (in words),[4]; i.v. injected phage,did not appreciably home
same,Fold over control phage,[4]; [9],3 fold
same,Specific Homing,[4]; [9],No
same,phage homing to C8161 tumors (in words),C8161 xenografts,Robust phage homing
same,phage homing to C8161 tumors (in words),C8161 xenografts; listed as CLSDGKRKC,homed selectively to the tumors
same,phage homing to C8161 tumors (in words),C8161 xenografts; listed as LSD phage,significantly higher than in normal tissues
same,relative efficiency of tumor homing of the two phage,"C8161 xenografts; i.v. injection, nude mice bearing C8161 tumors",about twice as efficient as CLDGGRPKC
same,Fold over control phage,C8161 xenografts; [10],39 fold
same,Specific Homing,C8161 xenografts; [10],Yes
same,phage homing to KRIB xenografts (in words),KRIB xenografts,slightly positive
same,phage homing to KRIB xenografts (in words),KRIB xenografts; listed as LSD phage,possible low-level homing
same,Fold over control phage,KRIB xenografts; [11],7^‡ fold
same,Specific Homing,KRIB xenografts; [11],Yes
same,phage homing to MDA-MB-435 tumors (in words),"[5]; i.v. injected phage, listed as LSD phage",did not appreciably home
same,Fold over control phage,[5]; [12],3 fold
same,Specific Homing,[5]; [12],No
same,phage binding to CXCR4-transfected 293T cells (in words),CXCR4; 293T cells,binds to 293T cells transfected with CXCR4
same,phage binding to CXCR4-transfected 293T cells versus mock- or VEGFR2-transfected cells,CXCR4; 293T cells,16 fold
same,inhibition of LSD phage binding to CXCR4-transfected 293T cells,"CXCR4; peptide 150 μg/ml co-incubated with phage, listed as LSD peptide",inhibits LSD-phage binding; also recorded: inhibited the binding
same,phage binding to VEGFR2-transfected 293T cells (in words),VEGFR2,not to cells transfected with VEGFR2
same,homing to K14-HPV16 skin cancers (in words),"K14-HPV16 skin cancer; i.v. injection, K14-HPV16 mice",possible low-level homing
same,Fold over control phage,K14-HPV16 skin cancer; [13],5 fold
same,Specific Homing,K14-HPV16 skin cancer; [13],No
same,phage homing to MMTV-PyMT breast tumors (in words),MMTV-PyMT breast tumors; i.v. injected phage,did not appreciably home
same,Fold over control phage,MMTV-PyMT breast tumors; [14],3 fold
same,Specific Homing,MMTV-PyMT breast tumors; [14],No
same,binding to C8161 tumor cell suspensions relative to control phage,[6],100 fold
same,binding to cell suspensions prepared from C8161 tumors (in words),[6],bound to cell suspensions prepared from C8161 tumors
